In patent US6504058B1 (priority 1997, dated 2003):
Like-named read-outs stand apart in the source and are kept apart here.

How the values were obtained:
Puccinia recondita = assay: Test B: wheat leaf rust, preventive spray on wheat seedlings, disease rating; assay type: in vivo, Puccinia recondita (on wheat seedlings); conditions: 200 ppm test suspension sprayed to run-off (equivalent to 500 g/ha) on wheat seedlings; 100 = 100% disease control, 0 = no control; # = significant activity
From the text: (§1) Test compounds were first dissolved in acetone in an amount equal to 3% of the final volume and then suspended at a concentration of 200 ppm in purified water containing 250 ppm of the surfactant Trem® 014 (polyhydric alcohol esters). The resulting test suspensions were then used in the following test. Spraying these 200 ppm test suspensions to the point of run-off on the test plants is the equivalent of a rate of 500 g/ha.
The test suspension was sprayed to the point of run-off on wheat seedlings. The following day the seedlings were inoculated with a spore suspension of Puccinia recondita (the causal agent of wheat leaf rust) and incubated in a saturated atmosphere at 20° C. for 24 h, and then moved to a growth chamber at 20° C. for 6 days, after which disease ratings were made.
(§2) Results for Tests A-E are given in Table A. In the table, a rating of 100 indicates 100% disease control and a rating of 0 indicates no disease control (relative to the controls). A dash (-) indicates no test results. ND indicates disease control not determined due to phytotoxicity. # indicates significant activity.

Pyricularia oryzae = assay type: in vivo, Pyricularia oryzae (on rice seedlings); conditions: 100 = 100% disease control, 0 = no control, # = significant activity
[1] = tested on: Erysiphe graminis f. sp. tritici; assay: Test A: wheat powdery mildew, preventive spray on wheat seedlings, disease rating; assay type: in vivo, Erysiphe graminis f. sp. tritici (on wheat seedlings); conditions: 200 ppm test suspension sprayed to run-off (equivalent to 500 g/ha) on wheat seedlings; 100 = 100% disease control, 0 = no control; # = significant activity
From the text: as §1
The test suspension was sprayed to the point of run-off on wheat seedlings. The following day the seedlings were inoculated with a spore dust of Erysiphe graminis f. sp. tritici, (the causal agent of wheat powdery mildew) and incubated in a growth chamber at 20° C. for 7 days, after which disease ratings were made.
as §2

Botrytis cinerea = assay: Test E: gray mold, preventive spray on cucumber seedlings, disease rating; assay type: in vivo, Botrytis cinerea (on cucumber seedlings); conditions: 200 ppm test suspension sprayed to run-off (equivalent to 500 g/ha) on cucumber seedlings; 100 = 100% disease control, 0 = no control; # = significant activity
From the text: as §1
The test suspension was sprayed to the point of run-off on cucumber seedlings. The following day the seedlings were inoculated with a spore suspension of Botrytis cinerea (the causal agent of gray mold on many crops) and incubated in a saturated atmosphere at 20° C. for 48 h, and moved to a growth chamber at 20° C. for 5 days, after which disease ratings were made.
as §2

Phytophthora infestans = assay type: in vivo, Phytophthora infestans (on tomato seedlings); conditions: 200 ppm test suspension sprayed to run-off (equivalent to 500 g/ha) on tomato seedlings; 100 = 100% disease control, 0 = no control; # = significant activity
[2] = 200 ppm test suspension sprayed to run-off (equivalent to 500 g/ha) on rice seedlings
[3] = Tested at 40 ppm, rice seedlings

Molecule | Test B disease control rating (wheat leaf rust) (Puccinia recondita) | Test C disease control rating (rice blast) (Pyricularia oryzae; [2]) | Test A disease control rating (wheat powdery mildew) [1] | Test E disease control rating (gray mold) (Botrytis cinerea) | Test D disease control rating (potato and tomato late blight) (Phytophthora infestans) | Test C disease control rating (rice blast) (Pyricularia oryzae; [3])
CC(NC(=O)C1(C)CC(C)(Cl)C1)c1cccc2ccccc12 (stereo not drawn) [compound 21] | 0 (a rating of 0 indicates no disease control (relative to the controls)) | 0 (a rating of 0 indicates no disease control (relative to the controls)) | 0 (a rating of 0 indicates no disease control (relative to the controls)) | 0 (a rating of 0 indicates no disease control (relative to the controls)) | 0 (a rating of 0 indicates no disease control (relative to the controls)) | –
CC(NC(=O)C1(C(F)(F)F)CC(C)(Cl)C1)c1ccc(Cl)cc1Cl (stereo not drawn) [compound 9] | 0 (a rating of 0 indicates no disease control (relative to the controls)) | 100# (a rating of 100 indicates 100% disease control) | 0 (a rating of 0 indicates no disease control (relative to the controls)) | 0 (a rating of 0 indicates no disease control (relative to the controls)) | 0 (a rating of 0 indicates no disease control (relative to the controls)) | –
CC(NC(=O)C1(C)CC(C)(Cl)C1)c1ccc(Br)cc1 (stereo not drawn) [compound 13] | 0 (a rating of 0 indicates no disease control (relative to the controls)) | 94# % | 0 (a rating of 0 indicates no disease control (relative to the controls)) | 0 (a rating of 0 indicates no disease control (relative to the controls)) | 0 (a rating of 0 indicates no disease control (relative to the controls)) | –
CC(NC(=O)C1CC(C)(Cl)C1)c1ccc(Br)cc1 (stereo not drawn) [compound 11] | 0 (a rating of 0 indicates no disease control (relative to the controls)) | 53% | 57% | 0 (a rating of 0 indicates no disease control (relative to the controls)) | 60% | –
CC(NC(=O)C1(C)CC(Cl)(CCl)C1)c1ccc2ccccc2c1 (stereo not drawn) [compound 64] | 0 (a rating of 0 indicates no disease control (relative to the controls)) | 53% | 0 (a rating of 0 indicates no disease control (relative to the controls)) | 0 (a rating of 0 indicates no disease control (relative to the controls)) | 91# % | –
CC(NC(=O)C1(C)CC(Cl)(CCl)C1)c1ccc(Br)cc1 (stereo not drawn) [compound 62] | 0 (a rating of 0 indicates no disease control (relative to the controls)) | 97# % | 0 (a rating of 0 indicates no disease control (relative to the controls)) | 0 (a rating of 0 indicates no disease control (relative to the controls)) | 84# % | –
CC(COc1cc(F)ccc1C#N)NC(=O)C1(C)CC(C)(Cl)C1 (stereo not drawn) [compound 44] | 0 (a rating of 0 indicates no disease control (relative to the controls)) | 94# % | 0 (a rating of 0 indicates no disease control (relative to the controls)) | 84% | 20% | –
CC(NC(=O)C1(C(F)(F)F)CC(C)(Cl)C1)c1ccc(Br)cc1 (mixture of isomers) [compound 1] | – | 100# (a rating of 100 indicates 100% disease control) | – | – | – | –
CC(COc1ccc(Br)cc1C#N)NC(=O)C1(C)CC(C)(Cl)C1 (stereo not drawn) [compound 37] | 25% | 0 (a rating of 0 indicates no disease control (relative to the controls)) | 0 (a rating of 0 indicates no disease control (relative to the controls)) | 8% | 23% | –
CC(COc1ccc(F)cc1C#N)NC(=O)C1(C)CC(C)(Cl)C1 (stereo not drawn) [compound 39] | 25% | 97# % | 0 (a rating of 0 indicates no disease control (relative to the controls)) | 47% | 45% | –
CC(COc1cc(Br)ccc1C#N)NC(=O)C1(C)CC(C)(Cl)C1 (stereo not drawn) [compound 48] | 85# % | 99# % | 96# % | 0 (a rating of 0 indicates no disease control (relative to the controls)) | 47% | –
CC(CCc1ccccc1)NC(=O)C1(C(F)(F)F)CC(C)(Cl)C1 (mixture of isomers) [compound 2] | – | 64# % | – | – | – | –
CC(COc1cc(F)ccc1Cl)NC(=O)C1(C)CC(C)(Cl)C1 (stereo not drawn) [compound 49] | 0 (a rating of 0 indicates no disease control (relative to the controls)) | 100# (a rating of 100 indicates 100% disease control) | 98# % | 0 (a rating of 0 indicates no disease control (relative to the controls)) | 0 (a rating of 0 indicates no disease control (relative to the controls)) | –
CC(NC(=O)C1(C(F)(F)F)CC(C)(Cl)C1)c1ccc(Cl)cc1 (stereo not drawn) [Compound 7] | – | 100# (a rating of 100 indicates 100% disease control) | – | – | – | –
CC(NC(=O)C1(C(F)(F)F)CC(C)(Cl)C1)c1ccc(Br)cc1 (stereo not drawn) [compound 5] | – | 100# (a rating of 100 indicates 100% disease control) | – | – | – | –
CC(NC(=O)C1(Cl)CC(C)(Cl)C1)c1ccc(Br)cc1 (stereo not drawn) [compound 15] | – | – | – | – | – | 94#* %
CC(NC(=O)C1(Cl)CC(C)(Cl)C1)c1ccc(Br)cc1 (stereo not drawn) [compound 16] | – | – | – | – | – | 98#* %
(R)-N-[1-(4-bromophenyl)ethyl]-3,3-difluoro-1-methylcyclobutanecarboxamide [Example 3] | – | 82# % | – | – | – | –
CC(NC(=O)C1(C(F)(F)F)CC(C)(Cl)C1)c1ccc(Cl)cc1 (stereo not drawn) [compound 6] | – | 98# % | – | – | – | –
CC(COc1ccccc1F)NC(=O)C1(C(F)(F)F)CC(C)(Cl)C1 (stereo not drawn) [compound 26] | – | 100# (a rating of 100 indicates 100% disease control) | – | – | – | –
CC(COc1ccccc1F)NC(=O)C1(C(F)(F)F)CC(C)(Cl)C1 (stereo not drawn) [compound 25] | – | 97# % | – | – | – | –
CC(NC(=O)C1(C(F)(F)F)CC(C)(Cl)C1)c1ccc(Br)cc1 (stereo not drawn) [compound 4] | – | 100# (a rating of 100 indicates 100% disease control) | – | – | – | –
